# Laboratory results as given in PubChem BioAssay (NCI).
#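 Five compound concentrations were applied to cells in 96-well plates for 48 hours; endpoints were derived by simple linear interpolation of the resulting dose-response curve. TGI: concentration producing complete growth inhibition.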
# How the values were obtained:
# Experiment in all cases: DTP human tumour cell line panel, 48 h
# A549 NSCLC = system: A549 NSCLC
# CAKI-1 renal = system: CAKI-1 renal
# HCC-2998 colon = system: HCC-2998 colon
# HCT-116 colon = system: HCT-116 colon
# HCT-15 colon = system: HCT-15 colon
# HL-60(TB) leukemia = system: HL-60(TB) leukemia
# IGROV1 ovarian = system: IGROV1 ovarian
# KM12 colon = system: KM12 colon
# MDA-MB-435 = system: MDA-MB-435
# NCI-H226 lung = system: NCI-H226 lung
# NCI-H23 lung = system: NCI-H23 lung
# NCI/ADR-RES ovarian = system: NCI/ADR-RES ovarian
# OVCAR-5 ovarian = system: OVCAR-5 ovarian
# PC-3 prostate = system: PC-3 prostate
# RPMI-8226 leukemia = system: RPMI-8226 leukemia
# SF-268 CNS = system: SF-268 CNS
# U251 CNS = system: U251 CNS
# UACC-257 melanoma = system: UACC-257 melanoma
# UO-31 renal = system: UO-31 renal
# A498 renal = system: A498 renal
Structure (SMILES),TGI (A549 NSCLC) [µM],TGI (CAKI-1 renal) [µM],TGI (HCC-2998 colon) [µM],TGI (HCT-116 colon) [µM],TGI (HCT-15 colon) [µM],TGI (HL-60(TB) leukemia) [µM],TGI (IGROV1 ovarian) [µM],TGI (KM12 colon) [µM],TGI (MDA-MB-435) [µM],TGI (NCI-H226 lung) [µM],TGI (NCI-H23 lung) [µM],TGI (NCI/ADR-RES ovarian) [µM],TGI (OVCAR-5 ovarian) [µM],TGI (PC-3 prostate) [µM],TGI (RPMI-8226 leukemia) [µM],TGI (SF-268 CNS) [µM],TGI (U251 CNS) [µM],TGI (UACC-257 melanoma) [µM],TGI (UO-31 renal) [µM],TGI (A498 renal) [µM]
Cc1cc(NS(=O)(=O)c2ccc(NC(=O)c3ccc4[nH]c5ccccc5c(=O)c4c3)cc2)no1,> 100,> 100,> 100,> 100,> 100,> 100,> 100,> 100,> 100,> 100,> 100,> 100,> 100,> 100,> 100,> 100,> 100,> 100,> 100,–
S=c1nc(Cc2ccc(Cl)cc2)[nH][nH]1,> 100,> 100,> 100,> 100,> 100,–,> 100,> 100,> 100,> 100,> 100,> 100,> 100,> 100,–,–,> 100,> 100,> 100,> 100
COC(=O)C(C)(C)OCc1ccc(C2NC(=O)N(c3cccc(Cl)c3)C(=O)N2c2cccc(Cl)c2)cc1 (stereo not given),> 100,> 100,> 100,> 100,> 100,–,> 100,> 100,> 100,–,22.1,> 100,> 100,> 100,> 100,> 100,> 100,> 100,> 100,–
O=c1[nH]c2ccc(Cl)cc2c2oc(-c3ccccc3)nc12,54.3,39.7,79,32.8,> 100,–,> 100,> 100,> 100,42.3,74.9,86.6,> 100,> 100,64.7,> 100,36.8,> 100,44.2,43.4
CC1=NNC(=O)C1C1CC(c2c[nH]c3ccccc23)=NNC1=S (stereo not given),> 100,> 100,–,> 100,> 100,> 100,–,> 100,> 100,> 100,> 100,> 100,> 100,> 100,> 100,> 100,> 100,> 100,> 100,> 100
CCOC(O)(NC(=O)C(C(F)(F)F)C(F)(F)F)C(F)(F)F (stereo not given),> 100,–,> 100,> 100,> 100,> 100,> 100,–,> 100,–,> 100,> 100,> 100,> 100,> 100,> 100,> 100,> 100,> 100,> 100
O=S(=O)(N/N=C1\CC2CCC1C2)c1ccccc1 (stereo not given),> 100,> 100,–,> 100,> 100,> 100,> 100,> 100,> 100,> 100,> 100,> 100,> 100,> 100,> 100,> 100,> 100,> 100,> 100,–
CC(C)CC[C@H](O)[C@@H](C)[C@H]1[C@@H](OC2OC(C)C(O)C(O)C2O)C[C@H]2[C@@H]3CC=C4C[C@@H](O)CC[C@]4(C)[C@H]3[C@@H](O)C[C@]12C (stereo not given in full),> 100,> 64,> 100,> 100,> 100,> 100,40.4,–,> 100,–,> 100,> 100,> 100,> 100,0.229,> 100,> 100,2.91,21.7,> 34.9
Cc1ncc([N+](=O)[O-])n1CCN(C)C(=O)CCCn1ccnc1[N+](=O)[O-],> 100,> 100,–,> 100,> 100,> 100,> 100,> 100,> 100,> 100,> 100,> 100,> 100,> 100,> 100,> 100,> 100,> 100,> 100,> 100
O=C(c1ccco1)N(Cc1ccco1)C(=S)Nc1ccccc1,> 76.8,22.1,98.1,30.7,36.2,4.61,42.2,> 100,30.2,> 100,38.1,55.3,> 100,> 100,11.7,85.3,91,57.6,32.8,–
CCOC(=O)[C@]12C(=C(c3ccccc3)O[C@H]3C=CCC[C@H]31)C(=O)C(=O)N2c1ccccc1,> 100,> 100,> 100,> 100,> 100,–,–,> 100,–,–,> 100,> 100,> 100,> 100,51.6,> 100,38.6,–,> 100,> 100
COc1cc(-c2cc(=O)c3c(OC)c(OC)c(OC)cc3o2)c(OC)c(OC)c1OC,> 75,> 75,> 75,> 75,> 75,44,> 75,> 75,> 75,> 75,> 75,> 75,> 75,> 75,> 75,> 75,> 75,> 75,> 75,–
